We go through seven molecules from ChEMBL document CHEMBL1201862, “PubChem BioAssay data set” (2004).

Activity calls are given as the source filed them.

Assay [1] in a line: BioA aminotransferase inhibition, coupled fluorescent readout – biochemical, coupled fluorescence displacement, 20-point, dry powder, dose response (AID 743357). In kind it is functional.
A further assay deals with HEK293. Briefly: EBV LMP1 TES2 canonical NF-kB signalling blockers – cell-based, HEK293, luciferase, cherry-pick, dose response (AID 588343). It is filed as functional, Homo sapiens. The following applies: Homo sapiens, HEK293.
Another assay deals with Transthyretin (Homo sapiens, UniProt P02766). In words: Luminescence-based cell-based high throughput dose response assay to identify activators of Transthyretin (TTR) transcription. In kind it is functional.
Assay [2] can be described thus: Late-stage results from the probe development effort to identify antagonists of arginine vasopressin receptor 1a (AVPR1a): fluorescence-based cell-based dose response AVPR1a inhibition assay. In kind it is functional.
Another assay addresses Vasopressin V1b receptor (Homo sapiens, UniProt P47901). Briefly: Late-stage results from the probe development effort to identify antagonists of arginine vasopressin receptor 1a (AVPR1a): fluorescence-based cell-based dose response AVPR1b inhibition counterscreen assay. In kind it is functional. Background: Counterscreens check selectivity or assay interference.
The target of another assay is Vasopressin V2 receptor (Homo sapiens, UniProt P30518). In words: Late-stage results from the probe development effort to identify antagonists of arginine vasopressin receptor 1a (AVPR1a): fluorescence-based cell-based dose response AVPR2 inhibition counterscreen assay. It is filed as functional.
Sequence of Vasopressin V2 receptor (P30518 whole entry): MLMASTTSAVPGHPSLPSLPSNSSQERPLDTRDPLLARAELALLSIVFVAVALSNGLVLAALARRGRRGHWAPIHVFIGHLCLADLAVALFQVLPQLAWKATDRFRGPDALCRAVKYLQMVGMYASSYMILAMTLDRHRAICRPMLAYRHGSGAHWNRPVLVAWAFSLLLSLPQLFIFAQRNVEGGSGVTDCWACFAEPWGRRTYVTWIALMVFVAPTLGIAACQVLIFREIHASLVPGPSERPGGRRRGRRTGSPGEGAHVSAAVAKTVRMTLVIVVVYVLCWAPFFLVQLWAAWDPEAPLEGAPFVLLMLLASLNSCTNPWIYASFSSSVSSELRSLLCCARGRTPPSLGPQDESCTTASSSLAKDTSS
Assay [3] is described as follows: Late-stage results from the probe development effort to identify antagonists of arginine vasopressin receptor 1a (AVPR1a): fluorescence-based cell-based dose response OXTR inhibition counterscreen assay. In kind it is functional.
The nature of assay [4]: Luminescence-based cell-based high throughput dose response assay to identify activators of the DAF-12 from the parasite S. stercoralis (ssDAF-12). It is filed as functional.
Assay [5] addresses T1, Oxysterols receptor LXR-beta (Homo sapiens, UniProt P55055).
T1 sequence (P55055 whole entry): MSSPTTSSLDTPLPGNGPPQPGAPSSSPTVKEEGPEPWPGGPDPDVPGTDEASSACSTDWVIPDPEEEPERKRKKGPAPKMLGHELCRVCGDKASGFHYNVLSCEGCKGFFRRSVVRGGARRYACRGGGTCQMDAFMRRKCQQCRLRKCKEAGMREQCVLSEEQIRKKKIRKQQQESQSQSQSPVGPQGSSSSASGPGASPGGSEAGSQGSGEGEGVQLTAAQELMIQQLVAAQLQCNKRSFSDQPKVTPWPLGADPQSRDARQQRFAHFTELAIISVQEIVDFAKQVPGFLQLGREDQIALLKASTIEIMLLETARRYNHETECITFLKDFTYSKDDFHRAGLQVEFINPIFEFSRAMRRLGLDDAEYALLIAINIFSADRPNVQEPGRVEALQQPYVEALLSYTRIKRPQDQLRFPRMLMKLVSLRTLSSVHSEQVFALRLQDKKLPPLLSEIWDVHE
Briefly: LXR agonists, Gal4 luciferase reporter, dose response, counter-screen for ssDAF-12 agonist project, cell-based, luminescence, HEK293, S. stercoralis campaign (AID 720737). It is filed as functional. The following applies: read-out: IC50 (the source's name).

A short description of assay [6]: toxicity to A549 lung cells – cell-based, plate reader, dry powder, set 6, cytotoxicity control, dose response (AID 743312). In kind it is functional.
The nature of a further assay: cells. The following applies: HEK293.
The test system of a further assay is INS1. Briefly: INS-1E survival protection against cytokine death – cell-based, luminescence, retest, dose response (AID 449756).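 Note: cell death triggered by IL-1 beta plus TNF-alpha plus IFN-gamma mixture; protective hits raise ATP signal compared with cytokine alone wells.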 In kind it is functional. The following applies: Rattus norvegicus.
Assay [7] has as its target T2, COUP transcription factor 2 (Homo sapiens, UniProt P24468).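 Note: HEK293 cells transiently cotransfected with COUP-TFII expression vector and reporter; luciferase reporter luminescence driven by COUP-TFII from the pX2-168 reporter plasmid.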
T2 sequence (P24468 whole entry): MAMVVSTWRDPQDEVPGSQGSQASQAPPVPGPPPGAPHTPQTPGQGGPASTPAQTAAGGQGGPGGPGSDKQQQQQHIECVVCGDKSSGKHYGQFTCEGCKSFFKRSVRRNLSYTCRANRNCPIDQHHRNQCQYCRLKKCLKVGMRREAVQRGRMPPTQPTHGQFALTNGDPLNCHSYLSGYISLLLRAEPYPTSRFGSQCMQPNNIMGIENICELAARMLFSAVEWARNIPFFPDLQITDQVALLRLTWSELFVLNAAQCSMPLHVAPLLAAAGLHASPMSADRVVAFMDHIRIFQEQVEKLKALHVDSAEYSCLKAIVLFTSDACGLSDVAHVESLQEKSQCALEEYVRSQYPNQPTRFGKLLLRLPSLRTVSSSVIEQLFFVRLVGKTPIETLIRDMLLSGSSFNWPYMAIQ
In words: Luminescence-based cell-based high throughput dose response assay to identify inhibitors of COUP-TFII (NR2F2). In kind it is functional.

Assay [8] in a line: viability loss in THP-1 monocytes – THP-1 cells, cytotoxicity control for Vif-APOBEC3G degradation inhibitor project, dose response (AID 1117359). It is filed as functional. The following applies: THP-1.
Assay [9] has as its target Glutathione-S-transferase (Schistosoma japonicum, UniProt Q26513). Briefly: GST-antibody interaction or FRET quenching – biochemical, TR-FRET, artefact control for Vif-APOBEC3G degradation inhibitor project, dose response (AID 1117362). It is filed as functional. (In general: In TR-FRET formats the signal depends on donor and acceptor labels being close together.)
Assay [10] can be described thus: T. cruzi growth inhibition in host cells, dose response, cell-based, plate reader, dry powder, set 2 (AID 652275). In kind it is functional.
Assay [11] is described as follows: Trypanosoma cruzi replication inhibitors in host cells – cell-based, plate reader, dry powder samples, dose response (AID 651845). It is filed as functional.
The nature of assay [12]: anti-trypanosomal activity in BESM host cells – imaging, CA-I/72 strain, bovine embryo skeletal muscle, dry powder, dose response (AID 651885). In kind it is functional, cell-based.

Sequence of Vasopressin V1b receptor (P47901 whole entry): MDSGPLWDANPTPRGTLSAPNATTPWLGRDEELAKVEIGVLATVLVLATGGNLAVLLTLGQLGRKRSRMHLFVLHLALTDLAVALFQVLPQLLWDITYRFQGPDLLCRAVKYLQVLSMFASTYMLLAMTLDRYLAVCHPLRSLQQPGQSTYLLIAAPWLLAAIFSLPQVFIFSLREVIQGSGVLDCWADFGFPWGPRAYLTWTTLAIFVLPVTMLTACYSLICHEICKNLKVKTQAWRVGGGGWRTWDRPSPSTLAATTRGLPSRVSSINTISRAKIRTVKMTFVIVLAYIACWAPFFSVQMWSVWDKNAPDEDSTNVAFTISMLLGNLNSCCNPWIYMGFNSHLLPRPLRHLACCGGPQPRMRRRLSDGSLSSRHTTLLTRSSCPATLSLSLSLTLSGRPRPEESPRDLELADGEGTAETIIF
Sequence of Glutathione-S-transferase (Q26513 whole entry): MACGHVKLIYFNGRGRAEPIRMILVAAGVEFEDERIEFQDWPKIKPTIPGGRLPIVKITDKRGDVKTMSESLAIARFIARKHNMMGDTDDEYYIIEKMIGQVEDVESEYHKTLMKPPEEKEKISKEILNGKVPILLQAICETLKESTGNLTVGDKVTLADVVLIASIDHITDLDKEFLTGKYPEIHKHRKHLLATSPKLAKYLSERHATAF

As for `CN(C)C(=O)c1ccc(N2CCN(C(=O)c3ccc4c(c3)OCO4)CC2)cc1`, in assay [1], the concentration at half-maximal activity (AC50) is 14 µM (active).
For `COc1ccc2cc3c(N)nn(C(=O)c4ccccc4[N+](=O)[O-])c3nc2c1`, in the assay on HEK293, the concentration at half-maximal activity (AC50) was 2.75 µM (active). In addition, at Transthyretin, the EC50 was > 167 µM (inactive).
Take `Cc1ccccc1N1CCN(C(=O)N(CC2CC2)c2ccc(Cl)cc2)CC1`: the half-inhibitory concentration (IC50) in assay [2] is 0.0027 µM (active); at Vasopressin V1b receptor, 12.8 µM (inactive); on Vasopressin V2 receptor, 1.02 µM (active); in [3], 0.046 µM (active).
For the molecule `O=C(CCN1C(=O)C2C3CCC(C3)C2C1=O)Nc1ccccc1C(F)(F)F` (stereo not drawn), in [4], the IC50 was > 67.6 µM (inactive). Besides, in assay [5], the EC50 was > 67.6 µM (inactive).
As for `Cc1ccc(C(C)C)c(OCCn2c(=O)[nH]c3ccccc32)c1`, the concentration at half-maximal activity (AC50) in assay [6] was 23.1 µM (active); in the assay “cells”, 32.4 µM (active).
Regarding `Cc1cccc2cc(-c3ccccc3)c(-c3ccccc3)c[n+]12`, in the assay on INS1, the half-maximal activity concentration (AC50) was 4.26 µM (active). Also, the IC50 is 8.22 µM (active) in assay [7] and 18.7 µM (active) in assay [9]. Moreover, the CC50 in [8] was 12.2 µM (active).
Turning to `C[C@@H]1CN(C)C(=O)c2cccc(NC(=O)c3ccncc3)c2O[C@H]1CN(C)Cc1ccc(Oc2ccccc2)cc1`, the AC50 in assay [10] was 0.00506 µM (active); in [11], 0.0381 µM (active). Besides, the IC50 in assay [12] is 10 µM (inconclusive).

The AC50 is the concentration at which the activity in the assay is half-maximal. Usually IC50 stands for the midpoint of a concentration-inhibition curve. For orientation: CC50 means the concentration that lowers cell viability or growth by half.
